# Data published in US6787318B1, “Assay for evaluating the therapeutic effectiveness of agents in reducing Alzheimer's disease pathology” (Roskamp Research Institute, LLC, priority 1999, dated 2004).
# “Also recorded” adds a separate entry of the source.
# Assays:
# CD40 [1] = experiment: CD40 cell ELISA on cultured HAEC; format: cell-based, human; details: Aβ 50 nM to 10,000 nM; IFN-γ 5 to 500 U/mL; 48 hours
# Experimental: To determine if CD40 expression on cultured HAEC was IFN-γ or Aβ dose-dependent, CD40 cell ELISA assays were performed according to published procedures. Briefly, cultured HAEC were plated at 2×10^4 cells/well in flat-bottom, 96-well tissue culture plates (Nunc-Immuno™ Plate, Denmark). […] Other HAEC were treated with a dose range (5 U/mL to 500 U/mL) of IFN-γ. […] Forty-eight hours post-treatment, plates were fixed overnight at 4° C. in 1% paraformaldehyde diluted in 1×PBS, washed three times with wash buffer (0.5% Tween 20 in 1×PBS), and subsequently incubated with […] of blocking buffer (10% fetal bovine serum in wash buffer) for one hour at 37° C. Cells were then treated with purified anti-human CD40 antibody ([…], PharMingen, Los Angeles, Calif.) in […] of blocking buffer for one hour at 37° C. Plates were washed four times with wash buffer. Biotinylated anti-mouse IgG1 (PharMingen, Los Angeles, Calif.; 1:2,000 dilution in blocking buffer, […]) was added and incubated for one hour at 37° C., followed by the addition of […] of a 1:3,000 dilution of HRP-Streptavidin (ZYMED, San Francisco, Calif.) for thirty minutes at 37° C. Plates were washed 4× with wash buffer and developed for twenty minutes at room temperature using the 3, 3′, 5, 5′-tetramethylbenzidine (TMB) one-step substrate system (DAKO, Carpinteria, Calif.) followed by the addition of 100 μL/well of 2N H2SO4 to stop the reaction. Absorbance was measured at 450 nm using a microplate spectrophotometer (SPECTRAmax 250, Molecular Devices, Sunnyvale, Calif.).
# CD40 [2] = experiment: CD40 cell-surface expression on HAEC, flow cytometry; format: cell-based, human; details: Aβ 500 nM, IFN-γ 10 U/mL; vs control peptide or Aβ-free
# Experimental: Cultured HAEC were treated as described above. […] Cells were analyzed on a FACScan flow cytometer (Becton-Dickinson, Mountain View, Calif.) using LYSIS-II software. CD40-expressing cells are defined as percentage of CD40-staining cells minus the percentage of IgG1-staining cells.
# CD40 expression between control peptide-treated and Aβ-free AEC was relatively similar.
# IFN-γR [3] = experiment: IFN-γR expression in HASM cells, cell-ELISA (CELISA); format: cell-based, human
# Experimental: (§1) In vitro measurement of Aβ-induced changes in expression of the inflammatory cell-surface molecules CD40 and […] in cultured HAEC and HASM cells was performed using a slightly modified ABC-based cell-ELISA (CELISA). […] After PBS washes, 4% neutral formalin solution (Sigma) was used for fixation of the cells. Following quenching of the endogenous peroxidase activity with 3% H2O2 and routine blocking of non-specific binding, the biotinylated specific secondary antibodies against the primary antibodies (goat anti-mouse or anti-rabbit IgG) were applied. The combination of EXTRAVIDIN® Proxidase and the subsequent color reaction was performed strictly according to the manufacturer's instructions in the EXTRAVIDIN® Peroxidase Staining Kit (Sigma). The absorbance of 405 nm was then measured using a microplate reader (SPECTRAmax 250, Molecular Devices). The optical density (O.D.) value for the wells in the absence of the primary antibody for each group was considered as background and subtracted as the blank. In addition, stimulation with IFN-γ for CD40 was included as a positive control in the appropriate plate. Since CD45 is not expressed by endothelial or smooth muscle cells, the assays for expression of CD45 in these Aβ-treated cells were used as negative controls throughout the experiment. In addition, to evaluate the degree of cell death or proliferation in the Aβ-treated, cells, parallel experiments were performed using the MTS (3-(4,5-dimethylthiazol-2-yl)-5-(3-carboxymethoxyphenyl)-2-(4-sulfophenyl)-2H-tetrazolium) cell-proliferation kit (Promega).
# (§2) Activation of CD40 signalling can be achieved by stimulation with either CD40L or certain anti-CD40 mAbs. Since synthetic CD40L is not commercially available, one of the anti-CD40 mAbs (clone 3/23), which has been reported to activate CD40 signalling, was used to mimic the effect of interaction of CD40-CD40L. All Aβ-treated cells were incubated with 1 μg/ml anti-CD40 mAb […]) for four hours followed by CELISA.
# IL-1β [4] = experiment: IL-1β secretion from HAEC, ELISA; format: cell-based, human
# Experimental: (§3) The assay for either IL-1β or IFN-γ was performed in strict accordance with the manufacturer's instructions for the respective assay kits.
# (§4) The resulting cell culture media were assayed for IL-1β or IFN-γ using ELISA. […] The lowest effective concentration was determined to be 100 nM for IFN-γ ([…]). The lowest effective concentration was determined to be 100 nM for IFN-γ (p<0.01) and 1 μM for IL-1β (p<0.01).
# IFN-γ = IFN-γ secretion from HAEC, ELISA; format: cell-based, human
# Experimental: as §3, §2, §4
# CD40 [5] = experiment: CD40 expression in Aβ-treated N9 and N60 microglial cells, flow cytometry; format: cell-based, murine
# Source text: Mononuclear cells from AD patients secrete markedly higher levels of IFN-γ compared to age-matched controls (18).
# CD40 [6] = experiment: CD40 protein in cultured HAEC, Western immunoblotting; format: cell-based, human; details: Aβ 5 μM, IFN-γ 100 U/mL, 48 hours
# Experimental: Cultured HAEC were plated at 1×10^6 cells/well in 100 mm culture dishes (Falcon, Becton Dickinson Inc. New Jersey). […] Cells were washed in ice-cold phosphate buffered saline (PBS) three times and lysed in an ice-cold lysis buffer containing 0.2 mM EDTA, 20 mM Tris/HCl (pH 8.0), 100 mM NaCl, 3% Nonidet P-40, 50 mM NaF, 10 mM sodium pyrophosphate, 2 mM orthovanadate, 10 μg/mL each of aprotinin and leupeptin and 1 mM PMSF. After incubation for thirty minutes on ice, samples were centrifuged at 15,000 rpm for fifteen minutes, and supernatants were collected. Total protein content was estimated using the Bio-Rad protein assay. An aliquot corresponding to 50 μg of total protein of each sample was separated by SDS-PAGE and transferred electrophoretically to Hy-bond PVDF membranes (Bio-Rad, California). Nonspecific antibody binding was blocked overnight at 4° C. with 5% non-fat dry milk in TBS (20 mM Tris, 500 mM NaCl, pH 7.5). […] Blots were also carried out on identical membranes with a reference anti-actin mouse monoclonal antibody (Boehringer Mannhem), which allowed for semi-quantitative CD40 protein determination. Densitometric analysis was performed for protein bands using the Fluor-S™ MultiImager with Quantity One™ software (Bio-Rad, California).
# HAEC [7] = experiment: Cytotoxicity in HAEC, LDH release assay; format: cell-based, human; details: 500 nM, 48 hours
# Experimental: Previous reports have shown that overexpression of amyloid precursor protein or exogenous addition of Aβ peptides can have cytotoxic effects on cultured endothelial cells.
# In order to determine if ligation of endothelial CD40 could result in production of pro-inflammatory cytokines, IL-1β was measured following treatment with IFN-γ or Aβ peptides. […] There was not observe a significant induction of endothelial cell death by LDH release assay between treatment groups during the time course examined by IL-1β release assay (by One-way ANOVA, F(6,41)=0.322, p=0.921), supporting the hypothesis that stimulation of the CD40 pathway in endothelial cells results in an early pro-inflammatory cascade which later promotes cell injury, rather than induce cytotoxicity acutely.
# CD40 [8] = experiment: CD40 expression in HAEC, cell-ELISA (CELISA); format: cell-based, human; details: for expression of CD40 on cytokine treatment: recombinant human cytokine
# Experimental: as §1
# IFN-γR [9] = experiment: IFN-γR expression in HAEC, cell-ELISA (CELISA) and Western blotting; format: cell-based, human; details: for expression of IFN-γR on cytokine treatment: recombinant human cytokine
# Experimental: as §1, §2
# The total protein was estimated using the Bio-Rad protein assay. An aliquot corresponding to 100 μg of total protein of each sample was separated by SDS/PAGE (polyacrylamide gel electrophoresis) and transferred electrophoretically to PVDF filters. Non-specific binding of antibody was blocked with 5% non-fat dry milk, in 20 mM Tris/HCl, pH 7.5/150 mM NaCl/0.1% Triton X-100. Immunoblotting was carried out with the appropriate antibody followed by alkaline phosphatase-conjugated secondary anti-immunoglobulin antibodies. These were then developed by the chemiluminescence method (Bio-Rad).
# HAEC [10] = experiment: MTS cell death/proliferation in Aβ-treated HAEC; format: cell-based, human; details: 10 or 20 μM
# Experimental: as §1, with “In addition, to evaluate the degree of cell death or proliferation in the Aβ-treated, cells, parallel experiments were performed using the MTS (3-(4,5-dimethylthiazol-2-yl)-5-(3-carboxymethoxyphenyl)-2-(4-sulfophenyl)-2H-tetrazolium) cell-proliferation kit (Promega).” left out
# IL-1β [11] = experiment: Human IL-1β release ELISA, HAEC with or without CD40 ligation; format: cell-based; details: for IL-1β release following CD40 ligation: 48 hour pre-treatment, then CD40L for eight hours; for IL-1β release in the absence of CD40L stimulation: Aβ 500 nM, IFN-γ 10 U/mL, 48 hours
# Experimental: To examine if endothelial CD40 would be functional, cultured HAEC were plated at 5×10^4 cells/well in 6-well tissue culture plates (Nunc-Immuno™ Plate, Denmark) and incubated at 37° C. with human CD40L recombinant protein (CD40L, 0.5 ug/mL, kindly provided by Dr. Jean-Yves Bonnefoy, Glaxo Institute for Molecular Biology, Geneva) in fresh cultured media for eight hours, and cell-free supernatants were collected for IL-1β release assay. The assay for human IL-1β was performed in strict accordance with the manufacturer's instruction using the human Predicta™ IL-1β Kit (Genzyme). Absorbance at 450 nm was measured using a microplate spectrophotometer (SPECTRAmax 250, Molecular Devices, Sunnyvale, Calif.).
# A second group of cells was subjected to these same treatments and incubated with CD40L ([…]) for eight hours following the initial 48 hour treatment period. IL-1β release was then quantified using a human IL-1β ELISA kit as described in materials and methods.
# neurons = details: exogenous, at levels similar to those produced by activated microglia; cited from earlier work
# [12] = system: primary cultured cortical neurons; experiment: Primary cultured microglia-mediated neuronal cell injury (micrographs, 51Cr release, LDH release); format: cell-based, mice; details: primary cultured microglia with cortical neurons
# Source text: CD45 positive cells (brown) are microglia, while neurofilament L-staining cells (red) are neurons. […] Results shown are from one of three independent experiments with similar results; FIG. 2E is a graph showing primary cultured microglia-mediated neuronal cell injury as evidenced by ^51Cr release. Data are reported as mean ^51Cr release values±1 SEM and n=9 for each condition presented. […] N=9 for each condition presented.
# Having shown that Aβ peptides activate microglia through the CD40 pathway, it was then investigated whether activation of Aβ-pretreated microglia by ligation of CD40 could mediate neuronal cell injury (23,24).
# cortical neurons = experiment: Cortical neurons incubated with treated N9 microglia, photomicrographs; format: cell-based, murine; details: Aβ1-42 250 nM, CD40L 0.5 μg/ml
# TNF-α = TNF-α release from cultured microglia, TNF-α ELISA; format: cell-based, mice; details: microglia pre-treated with 500 nM Aβ1-42
# [13] = increasing concentrations, 24 hours
molecule,measurement,setting,value
"Aβ1-40: amyloid β peptide 1-40, freshly solubilized",dose dependence of endothelial CD40,CD40 [1],marked increase in endothelial CD40 which is dose-dependent
same,"CD40 cell-surface expression, flow cytometry",CD40 [2],significantly induce CD40 expression
same,IFN-γR expression in HASM cells,IFN-γR [3]; 48 hours,induces a significant effect on IFN-γR
same,IFN-γR expression in HASM cells on CD40 ligation by mAb (3/23),"IFN-γR [3]; Aβ-treated cells, 1 μg/ml mAb, four hours",synergistic
same,IL-1β secretion at largest dose,IL-1β [4]; 20 μM,has no effect
same,"IL-1β secretion, dose dependence",IL-1β [4]; [13],does not show a dose-dependent effect
same,IFN-γ production at largest dose,"IFN-γ; 20 μM, vs control",does induce a significant production of IFN-γ
same,"IFN-γ secretion, dose dependence",IFN-γ; [13],does not show a dose-dependent effect
same,CD40 expression on cultured microglial cells,"CD40 [5]; 250 nM freshly solubilized peptide, N9 and N60 cells, vs control peptide or Aβ-free",significantly induce CD40 expression
same,"increase in CD40 expression vs control peptide or Aβ-free, Western",CD40 [6],~2 fold
same,"cell injury, LDH release",HAEC [7],no significant induction of cell injury
same,"CD40 expression in HAEC, dose dependence",CD40 [8],dose-dependently increase CD40 expression
same,lowest effective concentration for CD40 expression,CD40 [8]; HAEC,10 µM
same,IFN-γR expression in HAEC,IFN-γR [9]; 48 hours,neither Aβ1-40 nor Aβ25-35 modulate the IFN-γR expression
same,"cell death, MTS assay, HAEC",HAEC [10],significant amount of cell death
same,IL-1β release following CD40 ligation,IL-1β [11],synergistic effect
same,IL-1β release in the absence of CD40L stimulation,IL-1β [11],not sufficient to elicit IL-1β
IFN-γ: Human IFN-γ recombinant protein (Genzyme),dose dependence of endothelial CD40,CD40 [1],dose-dependent induction of endothelial CD40
same,"CD40 cell-surface expression, flow cytometry",CD40 [2],significantly induce CD40 expression
same,effect of cytokine on Aβ-dependent CD40 expression,"CD40 [5]; low dose 10 U/mL, Aβ-challenged microglia",synergistically enhances Aβ-dependent CD40 expression
same,"increase in CD40 expression vs control peptide or Aβ-free, Western",CD40 [6],~2.5 fold
same,expression of CD40 on cytokine treatment,CD40 [8],up-regulate the expression of CD40 and IFN-γR
same,expression of IFN-γR on cytokine treatment,IFN-γR [9],up-regulate the expression of CD40 and IFN-γR
same,IL-1β release following CD40 ligation,IL-1β [11],synergistic effect; also recorded: more pronounced than Aβ's effect
same,IL-1β release in the absence of CD40L stimulation,IL-1β [11],not sufficient to elicit IL-1β
IL-1β: recombinant human cytokine,expression of CD40 on cytokine treatment,CD40 [8],up-regulate the expression of CD40 and IFN-γR
same,expression of IFN-γR on cytokine treatment,IFN-γR [9],up-regulate the expression of CD40 and IFN-γR
TNF-α,"neuronal injury and death, LDH release",neurons,dose-dependently induces neuronal injury and death
CD40L: human CD40L recombinant protein (protein) ENSFEMQKGDQNPQIAAHVISEASSKTTSVLQWAEKGYYTMSNNLVTLENGKQLTVKRQGLYYIYAQVTFCSNREASSQAPFIASLCLKSPGRFERILLRAANTHSSAKPCGQQSIHLGGVFELQPGASVFVNVTDPSQVSHGTGFTSFGLLKL,neuronal degeneration / injury in micrographs,[12],not detectable
same,change in cortical neurons,cortical neurons,no change in cortical neurons
same,TNF-α release on addition of CD40L,TNF-α,synergistically increases TNF-α release
same,IL-1β release,IL-1β [11]; CD40L and Aβ-free condition,approximately 50 pg/mg total protein
